“Also recorded” adds a separate entry of the source.
What was measured:
Assay type in all cases: cell-based, human
[1] = system: caspase-3 activation of HaCaT cells; test: Fluorometric CaspACE assay of activated caspase-3 activity
Protocol: FIG. 4. Effect of IP-6 and UVB radiation on caspase-3 activation of HaCaT cells. To assess activated caspase-3 activity, cells were either not exposed or exposed to 30 mJ/cm^2 UVB radiation, and then either treated with 1.0 mM Na-IP-6 or not treated with IP-6. Eighteen hours later, cells were harvested and fluorometric CaspACE assays were performed. Activated caspase-3 activity is represented as relative fluorescence units. **Significant at p<0.01, as compared to the group exposed to UVB but not treated with IP-6. The concentration of inositol in the media is 38.8 μM.
HaCaT cells were plated in 60 mm tissue culture dishes for 24 hours. The cells were either exposed to 30 mJ/cm^2 UVB radiation or not exposed. […] 10 μL of sample was then combined with caspase assay buffer (312.5 mM HEPES (pH 7.5), 31.25% sucrose, 0.3125% CHAPS (3-[(3-cholamido-propyl)-dimethyl ammonio]-1 propane-sulfonate, 2% DMSO, 10 mM DTT) containing 50 μM caspase-3 substrate, Ac-DEVD-AMC, in white 96 well microtiter plates. Negative control wells included 2 μL of 2.5 mM specific peptide inhibitor of caspase-3 (Ac-DEVD-CHO). The plate was incubated at 30° C. for 1 hour. The free reaction product, AMC was then measured using a fluorescent plate reader with an excitation wavelength of 360 nm and an emission wavelength of 460 nm. Caspase-3 activity was reported as relative fluorescent intensity of AMC.

HaCaT cells [2] = test: Annexin V and PI staining, flow cytometry (apoptotic, necrotic, viable cells) after UVB radiation; conditions: UVB-exposed
Protocol: FIG. 3. Effect of IP-6 and UVB radiation on cell cycle distribution of HaCaT cells. For annexin V and PI staining cells were either not exposed or exposed to 30 mJ/cm^2 UVB radiation, then either treated with 1.0 mM Na-IP-6 or not treated with IP-6. Eighteen hours later, cells were harvested and double stained with annexin V and PI and analyzed by flow cytometry. The number of cells that are present in apoptosis, necrosis or are viable are represented as percentages; p<0.001, as compared to the group exposed to UVB but not treated with IP-6. The concentration of inositol in the media is 38.8 μM. HaCaT cells were plated in 60 mm tissue culture dishes for 24 hours. The cells were then either not exposed, or exposed, to 30 mJ/cm^2 UVB radiation and treated immediately with 0, 0.5 mM, or 1.0 mM IP-6. Cells were harvested 6 and 18 hours after UVB exposure. 5 μL of RNase (DNase-free) was added to 10^6 cells/mL. The cell suspension was incubated at 37° C. for 30 minutes. The suspension was then chilled on ice (2-8° C.). 100 μL of PI was added to the cell suspension (Cellular DNA flow cytometric analysis kit, Roche Diagnostics, Indianapolis, Ind.). DNA quantitation was performed on the same day by flow cytometry using FACS.

HaCaT cells [3] = test: Cell attachment (crystal violet absorbance) after UVB radiation
Protocol: 5×10^4 HaCaT cells were seeded into each well of four 6-well tissue culture plates and incubated at 37° C. and 5% CO2 for 24 hours. One hour before UVB irradiation, two plates were treated with IP-6 (0 and 0.1 mM), one for IP-6 pre-treatment and the other for IP-6 pre-treatment and post-treatment. All four plates were then washed twice with PBS 1×, and a small amount of PBS 1× was added to the wells, which were irradiated at 30 mJ/cm^2. After UVB exposure, PBS was removed from the wells and DMEM media was added to each well. IP-6 (0.05 and 0.1 mM) was then added to the plates labeled no UVB exposure, IP-6 post-treatment, and pre-treatment and post-treatment. The cells were then incubated (37° C. and 5% CO2) for 18 hours. Following incubation, the cells were washed 4 times with PBS 1× (pH 7.4), then fixed with 4.0% formaldehyde for 15 minutes, and stained with 0.5% aqueous crystal violet for at least 5 minutes. Excess crystal violet was washed from the wells and the plates were left to dry. The dried crystal violet residue in each well was then dissolved in 500 μL of 30% acetic acid. The absorbance was read at 595 nm in triplicate in a 96-well plate using an EL Ultra Micro-plate Reader. Additionally, 5×10^4 HaCaT cells were plated into each well of ten 6-well plates as was done above. Before UVB irradiation, cells were washed twice with PBS 1×, and a small amount of PBS 1× was added to the wells. Cells were then exposed to no UVB, or 15, 30, 60, or 120 mJ/cm^2 intensities. Following exposure, cell media was added to the wells and cells were treated with IP-6 (0-2.0 mM). The cells were then incubated at 37° C. and 5% CO2. 18 hours after UVB exposure, cells were fixed with 4% formaldehyde, stained with 0.5% aqueous crystal violet and dissolved with 30% acetic acid as was done above. The absorbance was read in triplicate at 595 nm.

HaCaT cells [4] = test: Cell cycle distribution by PI flow cytometry after UVB radiation
Protocol: HaCaT cells were plated in 60 mm tissue culture dishes for 24 hours. The cells were then either not exposed, or exposed, to 30 mJ/cm^2 UVB radiation and treated immediately with 0, 0.5 mM, or 1.0 mM IP-6. Cells were harvested 6 and 18 hours after UVB exposure. 5 μL of RNase (DNase-free) was added to 10^6 cells/mL. The cell suspension was incubated at 37° C. for 30 minutes. The suspension was then chilled on ice (2-8° C.). 100 μL of PI was added to the cell suspension (Cellular DNA flow cytometric analysis kit, Roche Diagnostics, Indianapolis, Ind.). DNA quantitation was performed on the same day by flow cytometry using FACS.

HaCaT cells [5] = test: MTT assay of cell viability and proliferation after UVB radiation
Protocol: The human keratinocyte (HaCaT) cells were grown in Dulbecco's Modified Eagle's Medium containing 7 mg/L of inositol (38.8 μM), supplemented with 10% heat-inactivated fetal bovine serum, 1% L-glutamine, and 1% antibiotic (penicillin, streptomycin). Cells were maintained at 37° C. and 5% CO2. Na-IP-6 was diluted from a 100 mM stock solution to the required concentrations (0.05-2.0 mM) using cell culture medium as the diluent. UVB intensities of 15, 30, 60 and 120 mJ/cm^2 were used, which was obtained by varying cell exposure time to UVB light (80% of light output is in 290-320 nm UVB range).
HaCaT cells were grown to approximately 80-90% confluency. 100 μL of 1×10^4 cells/mL HaCaT cells were seeded into each well of four 96-well plates. Cells were treated with IP-6 (0-2.0 mM), and on days 0, 1, 2, and 3, 100 μL of 1 mg/mL of aqueous MTT dissolved in DMEM media was added to each well and plates were placed into the incubator (37° C. and 5% CO2) for 4 hours. 150 μL of DMSO was then added to dissolve the formazan products. The absorbance was read at 540 nm using an EL Ultra Micro-plate Reader. Results were recorded as mean absorbance for each set of groups. […]
To determine if IP-6 protects HaCaT cells from UVB-induced injury, The MTT assay was performed as done above. […] Results were recorded as the mean absorbance for each set of groups.

[6] = 0.5 mM IP-6, vs UVB without IP-6
[7] = 0.5 and 1.0 mM IP-6, vs UVB without IP-6, p<0.001

O=P(O)(O)O[C@H]1[C@H](OP(=O)(O)O)[C@@H](OP(=O)(O)O)[C@H](OP(=O)(O)O)[C@@H](OP(=O)(O)O)[C@H]1OP(=O)(O)O [IP-6, inositol hexaphosphate]
activated caspase-3 activity ([1]; 1.0 mM IP-6, no UVB, 18 hours, vs control group): increase in activated caspase-3 activity
activated caspase-3 activity ([1]; UVB 30 mJ/cm^2 + 1.0 mM IP-6, 18 hours, vs UVB without IP-6, p<0.01): significantly lowered
percentage of apoptotic cells (HaCaT cells [2]; [6]): significant decrease
percentage of necrotic cells (HaCaT cells [2]; [6]): significant decrease
percentage of viable cells (HaCaT cells [2]; [6]): significant increase
apoptotic, necrotic and viable cells, effects relative to 0.5 mM (HaCaT cells [2]; 1.0 mM IP-6): much more pronounced
apoptotic cells, dose dependence (HaCaT cells [2]; [7]): dose-dependent decrease
necrotic cells, dose dependence (HaCaT cells [2]; [7]): dose-dependent decrease
viable cells (HaCaT cells [2]; [7]): increase in viable cells
cell attachment (HaCaT cells [3]; UVB 15 mJ/cm^2, 18 h, higher IP-6 concentrations (1.0 and 2.0 mM), vs non-IP-6 treated group): decrease in cell attachment
cell attachment (HaCaT cells [3]; UVB 15 mJ/cm^2, 18 h, lower IP-6 concentrations, vs non-IP-6 treated group): increase in cell attachment
cell attachment (HaCaT cells [3]; UVB 30 mJ/cm^2, 18 h, vs irradiated cells without IP-6, p<0.01 (FIG. 2: 0.5, 1.0 and 2.0 mM)): significant increase in HaCaT cell attachment with increasing concentrations of IP-6
cell attachment (HaCaT cells [3]; UVB 60 mJ/cm^2, 18 h, vs irradiated cells without IP-6): decrease in cell attachment
cell attachment (HaCaT cells [3]; UVB 120 mJ/cm^2, 18 h, vs irradiated cells without IP-6): decrease in cell attachment
G2M phase, 1.0 mM vs 0.5 mM treatment (HaCaT cells [4]; 18 hours after UVB 30 mJ/cm^2): comparable
effect on different phases of the cell cycle, 6 vs 18 hour (HaCaT cells [4]; UVB 30 mJ/cm^2, IP-6 0.5 or 1.0 mM): no time-dependent differences
cell viability and proliferation (MTT) (HaCaT cells [5]; UVB 15-120 mJ/cm^2, IP-6 0-2.0 mM added immediately after UVB, read 24 h later, p<0.001): increase in cell viability with increasing concentration of IP-6; also recorded: significant increase in relative cell viability with increasing IP-6 concentrations
cell viability (MTT), normal trend (HaCaT cells [5]; normal trend with higher IP-6 concentration (without the UVB effect)): decrease in cell viability with higher concentration of IP-6
